# Experiments:
# Assay type in all cases: cell-based
# [1] = tested on: human neutrophils; assay: Binding of PGG β-glucan to human neutrophils (BfD IV staining, flow cytometry)
# Description: Enriched neutrophils or PBMC were resuspended at 1×10^6 cells/mL in RPMI 1640 supplemented with 10% serum. PGG β-glucan at hexose concentrations 100 μg/mL, 200 μg/mL, or 400 μg/mL were added to neutrophils or PBMC and incubated in a 37° C., 5% CO2 humidified incubator for two hours. After incubation, cells were washed twice with FACS buffer (HBSS supplemented with 1% FBS and 0.1% sodium azide) to remove any unbound β-glucan, and subsequently treated with Fc block (Miltenyi Biotec, Auburn, Calif.). […] Cells were then incubated with FITC-conjugated F(ab′)2 goat anti-mouse IgM for 30 minutes at 4° C. and washed once with cold FACS buffer before fixing with 1% paraformaldehyde. In early optimization experiments, neutrophils, monocytes, and T cells were identified by staining with fluorescently labeled anti-CD 15, anti-CD 14, or anti-CD3 Abs, respectively. Events were collected on a LSRII flow cytometer (BD Biosciences, San Jose, Calif.) and analysis was performed using FLOWJO (Tree Star, Ashland, Oreg.). […] Surface binding of DTAF-conjugated β-glucan was subsequently assessed by flow cytometric analysis. […] The experiments to determine binding of PGG β-glucan at 200 μg/mL to neutrophils or at 100 μg/mL to PBMC were performed as described above with the following changes. For determining serum dependency, PGG β-glucan was incubated with neutrophils or PBMC resuspended in RPMI 1640 containing 2%, 5%, or 10% autologous serum at 37° C. for two hours. For time-course experiments, PGG β-glucan at indicated concentrations was incubated with cells resuspended in 10% autologous serum at 37° C. for 10 minutes, 20 minutes, 60 minutes, or 120 minutes. For temperature dependency experiments, PGG β-glucan at indicated concentrations was incubated with cells resuspended in 10% autologous serum for two hours at 4° C., room temperature, or 37° C.
# [2] = tested on: human monocytes; assay: Binding studies on the role of complement proteins in serum, monocytes
# Description: Heat-inactivated (HI) serum was prepared by incubating serum in a 56° C. water bath for 30 minutes. […] Treatment of serum with methylamine (MA) was done by incubating serum with 0.67% of methylamine for 2.5 hours at 37° C., followed by three washes with DPBS using Amicon centrifugal filter unit with a 3K MW cut-off (Millipore, Billerica, Mass.). DPBS-treated serum was prepared in the same manner and used as control serum for MA-treated serum. For blocking of factor D in the serum, 166-32 at concentration 20 μg/mL was incubated with serum on ice for 30 minutes, and then used for binding studies. For binding experiments in the presence of EGTA or MgEGTA, serum was incubated with 10 mM EGTA with or without 10 mM MgCl2 for 10 minutes at room temperature. The untreated and EGTA/MgEGTA-treated serum was then used to pre-treat PGG and perform binding studies as described earlier.
# [3] = tested on: human neutrophils; assay: iC3b staining on PGG β-glucan-bound neutrophils (flow cytometry, confocal microscopy)
# Description: (§1) Binding of PGG β-glucan to neutrophils and PBMC was done as above. iC3b deposition on these cells was detected by staining with a neo-epitope specific anti-iC3b Ab and PE-conjugated goat anti-mouse IgG and analyzing by flow cytometry.
# Enriched neutrophils, resuspended at 1×10^6 cells/mL in either RPMI supplemented with 20% serum or heat-inactivated serum, were mixed with PGG β-glucan before being applied to a 10 mm glass cover slip placed in the well of a 24-well plate. The plate was incubated in a 37° C., humidified 5% CO2 incubator for one hour. Unbound cells and PGG β-glucan were removed by washing with warmed PBS, and bound cells were subsequently fixed in 1% formaldehyde at room temp for 15 minutes. Cells were blocked with FCR blocking agent prior to staining with BFD IV and anti-iC3b monoclonal antibody for 30 minutes at 4° C., and followed by the secondary staining antibodies Cy5-conjugated goat anti-mouse IgM and Cy3-conjugated goat anti-mouse IgG at 4° C. for 30 minutes. Cells were penneabilized with 0.1% ice-cold TritonX-100 for three minutes on ice, stained with DAPI on ice for five minutes before mounting onto slides. Images were analyzed and acquired with Olympus FluoView 1000 IX2 Inverted confocal microscope. Images were adjusted equally in Adobe Photoshop (Adobe Systems Inc., San Jose, Calif.).
# [4] = tested on: human monocytes; assay: Binding of PGG β-glucan after serum pre-treatment, monocytes; settings: 100 μg/mL; 10% HI serum; two hours at 37° C.
# Description: PGG β-glucan at concentration 60-80 mg/mL was incubated with human serum at 1:10 volume ratio for 30 minutes in a 37° C. water bath. The serum-pretreated PGG β-glucan was added to neutrophils at 200 μg/mL or to PBMC at 100 μg/mL resuspended in RPM1 containing either 10% regular autologous serum or 10% HI serum at indicated time and temperature of incubation. Binding was then determined as described previously.
# To determine the role of complement proteins in binding, experiments were performed as described above except for using serum containing 10% HI, compstatin-treated or methylamine (MA)-treated, EGTA- or EGTA+MgCl2 (MgEGTA)-treated, or factor D-blocked serum. Heat-inactivated (HI) serum was prepared by incubating serum in a 56° C. water bath for 30 minutes. […] Treatment of serum with methylamine (MA) was done by incubating serum with 0.67% of methylamine for 2.5 hours at 37° C., followed by three washes with DPBS using Amicon centrifugal filter unit with a 3K MW cut-off (Millipore, Billerica, Mass.). DPBS-treated serum was prepared in the same manner and used as control serum for MA-treated serum. For blocking of factor D in the serum, 166-32 at concentration 20 μg/mL was incubated with serum on ice for 30 minutes, and then used for binding studies. […]
# [5] = tested on: human monocytes; assay: iC3b staining on PGG β-glucan-bound monocytes (flow cytometry); settings: 100 μg/mL; 10% serum; 37° C.; two hours
# Excerpt: as §1
# [6] = 2%, 5% or 10% autologous serum, 37° C., two hours
substance,measurement,setting,value
"β(1,6)-[poly-1,3)-D-glucopyranosyl]-poly-β(1,3)-D-glucopyranose [PGG β-glucan]",Minimum concentration of β-glucan detected on the cells by the BfD IV detection system,[1],100 µg/mL
same,Incubation time of maximal binding,"[1]; 200 μg/mL, 10% serum, 37° C.",30 to 60 min
same,Percentage of serum at which maximal binding occurred,[1]; [6],10%
same,Percentage of serum at which minimum binding occurred,[1]; [6],2%
same,Concentration at which percentage of BfD IV positive cells reached a plateau,"[1]; 10% autologous serum, 37° C., two hours",200 µg/mL
same,Binding (MFI and percentage of BfD IV positive cells),"[1]; 100, 200, 400 μg/mL, 10% autologous serum, 37° C., two hours",bound to both neutrophils and monocytes
same,Incubation temperature of maximal binding,"[1]; two hours at 4° C., room temperature or 37° C., 10% serum",37 °C
same,Binding in the presence of heat inactivated (HI) serum,"[2]; 10% HI serum vs regular serum, 100 μg/mL",abrogated
same,Average percentage of binding inhibition in HI serum,"[2]; based on MFI, five donors",90%
same,Range of percentage of binding inhibition in HI serum,"[2]; based on MFI, five donors",81-100%
same,iC3b staining on cells incubated with β-glucan vs serum alone,"[3]; 200 μg/mL, 10% serum, 37° C., two hours",increased staining of iC3b
same,Co-localization of bound glucan and iC3b (confocal microscopy),[3]; BfD IV and anti-iC3b double staining,co-localized
same,"Extent of rescued binding to cells in HI serum (MFI, percentage of BfD IV positive cells)",[4],minimal
same,iC3b staining on cells incubated with β-glucan vs serum alone,[5],increased staining of iC3b

# — patent US10092657B2, “Opsonized β-glucan preparations and methods” (Biothera, Inc., priority 2011, dated 2018)
